Measurements from patent US6814969B2, “Immunologically significant herpes simplex virus antigens and methods for using same” (University of Washington, priority 2001, dated 2004).

Assays:
Assay type in all cases: cell-based, human
TCC 4.2E1 [1] = assay: T-cell proliferation ([3H]thymidine incorporation), TCC 4.2E1; conditions: FIG. 3; peptides used at 3 μM; autologous EBV-LCL APC
Description: (§1) Triplicate proliferation assay wells contained 10^4 cloned T-cells, 10^5 irradiated (3300 rad) PBMC or 2.5×10^4 irradiated (8000 rad) EBV-LCL as antigen presenting cells (APC), and antigen in 200 μl T-cell media (D. M. Koelle et al., 1997, Human. Immunol., 53:195-205) in 96-well U-bottom plates. When heat-killed bacteria were used as antigen, the equivalent of 10^5 cfu/well (prior to inactivation) was added and gentamicin (20 μg/ml) was included. After 72 hours, 1 μCi/well ^[3]H thymidine was added for 18 hours, cells were harvested, and incorporation of thymidine evaluated by liquid scintillation counting. Standard deviations were less than 10% of the mean values. Results are reported as mean cpm or as delta cpm=mean cpm for experimental antigen minus mean cpm for control antigen. Control antigen was mock-infected cell lysate for whole viral antigens and pUEX2-derived β-galactosidase for recombinant protein preparations. To determine the reactivity of bulk-cultured lesion-derived T-cells, fusion proteins or control β-galactosidase were used at 10 μg/ml. […]

TCC 4.2E1 [2] = assay: Cytolysis assay (4-hour 51Cr release), CD4 TCC 4.2E1; conditions: E:T 20:1
Description: (§2) Cytolysis assays were performed in triplicate using 4-hour [^51]Cr release as described (D. M. Koelle et al., 1993, J. Clin. Invest., 91:961-968). […] W. Kwok et al., 1996,J. Exp. Med., 183:1253-1258). The effector to target ratio was 20:1. Spontaneous release was less than 28%.

lesion-derived T cells = assay: Recognition of ICP0 epitopes by lesion-derived T cells; conditions: 743-751: CD8+ T cells, HLA allele B*0702
Excerpt: The recognition event involves HLA allele B*0702, which is relatively common (approximately 10%) in the human population.

TCC RH.13 [3] = assay: T-cell proliferation, TCC RH.13
Description: (§3) Triplicate proliferation assay wells contained 10^4 cloned T-cells, 10^5 irradiated (3300 rad) PBMC or 2.5×10^4 irradiated (8000 rad) EBV-LCL as antigen presenting cells (APC), and antigen in 200 μl T-cell media (D. M. Koelle et al., 1997, Human. Immunol., 53:195-205) in 96-well U-bottom plates. When heat-killed bacteria were used as antigen, the equivalent of 10^5 cfu/well (prior to inactivation) was added and gentamicin (20 μg/ml) was included. After 72 hours, 1 μCi/well ^[3]H thymidine was added for 18 hours, cells were harvested, and incorporation of thymidine evaluated by liquid scintillation counting. Standard deviations were less than 10% of the mean values. Results are reported as mean cpm or as delta cpm=mean cpm for experimental antigen minus mean cpm for control antigen. Control antigen was mock-infected cell lysate for whole viral antigens and pUEX2-derived β-galactosidase for recombinant protein preparations. To determine the reactivity of bulk-cultured lesion-derived T-cells, fusion proteins or control β-galactosidase were used at 10 μg/ml. To determine HLA restricting loci, HLA DR-specific mAb L243 (V. G. Preston et al., 1978, J. Virol., 28:499-517), HLA DP-specific mAb B7.21 (A. J. Watson et al., 1983, Nature, 304:358-360), or HLA DQ-specific mAb SpV-L3 (H. Spits et al., 1984, Eur. J. Immunol., 14:299-304) were used as described (D. M. Koelle et al., 1994, J. Virol. 68:2803-2810).
Three epitopes within VP16, all HSV-2 type-specific were previously identified (K. R. Jerome et al., 1998, J. Virol., 72:436-441), and proliferative responses to full-length VP16 in bulk cultures of genital HSV-2 lesion-infiltrating lymphocytes from four of seven (57%) patients were detected (D. M. Koelle et al., 1998, J. Clin. Invest., 101:1500-09). Additional peptide epitopes were sought within VP16 by two strategies. The first strategy involved screening panels of clones recovered from lesion vesicle fluid for reactivity with recombinant VP16 of HSV-2 followed by epitope mapping with peptides. […]

TCC RH.13 [4] = assay: Cytolysis assay (4-hour 51Cr release), CD4 TCC RH.13; conditions: HSV-2 infected or 1 μM peptide, E:T 20:1
Description: as §2

TCC KM.7 [5] = assay: Cytolysis assay (4-hour 51Cr release), CD4 TCC KM.7; conditions: HSV-2 infected or 1 μM peptide, E:T 20:1
Description: as §2

TCC KM.7 [6] = assay: T-cell proliferation, TCC KM.7; conditions: VP16 1-492 at 1 μg/ml, β-gal-VP16 180-492 at 1:1,000, peptides at 1 μM
Description: as §1, with “preparations.” for “preparations. To determine the reactivity of bulk-cultured lesion-derived T-cells, fusion proteins or control β-galactosidase were used at 10 μg/ml.”
(§4) Three epitopes within VP16, all HSV-2 type-specific were previously identified (K. R. Jerome et al., 1998, J. Virol., 72:436-441), and proliferative responses to full-length VP16 in bulk cultures of genital HSV-2 lesion-infiltrating lymphocytes from four of seven (57%) patients were detected (D. M. Koelle et al., 1998, J. Clin. Invest., 101:1500-09). […]

TCC ESL4.34 [7] = assay: T-cell proliferation, TCC ESL4.34; conditions: VP16 1-492 at 1 μg/ml, β-gal-VP16 180-492 at 1:1,000, peptides at 1 μM
Description: as §3

TCC ESL4.34 [8] = assay: Cytolysis assay (4-hour 51Cr release), CD4 TCC ESL4.34; conditions: HSV-2 infected or 1 μM peptide, E:T 10:1
Description: Cytolysis assays were performed in triplicate using 4-hour [^51]Cr release as described (D. M. Koelle et al., 1993, J. Clin. Invest., 91:961-968). […] W. Kwok et al., 1996,J. Exp. Med., 183:1253-1258). […] Spontaneous release was less than 28%.

TCC ESL3.334 [9] = assay: T-cell proliferation, TCC ESL3.334; conditions: VP16 1-492 at 1 μg/ml, β-gal-VP16 180-492 at 1:1,000, peptides at 1 μM
Description: as §3

TCC ESL3.334 [10] = assay: Cytolysis assay (4-hour 51Cr release), CD4 TCC ESL3.334; conditions: HSV-2 infected or 1 μM peptide, E:T 20:1
Description: as §2

TCC 1A.B.25 [11] = assay: T-cell proliferation, TCC 1A.B.25; conditions: VP16 1-492 at 1 μg/ml, β-gal-VP16 180-492 at 1:1,000, peptides at 1 μM
Description: as §3

TCC 1A.B.25 [12] = assay: Cytolysis assay (4-hour 51Cr release), CD4 TCC 1A.B.25; conditions: HSV-2 infected or 1 μM peptide, E:T 20:1
Description: as §2

[13] = tested on: bulk cultures of lesion-infiltrating T-cells; assay: Reactivity of bulk cultures of lesion-infiltrating T-cells with HSV antigens; conditions: four biopsies, day 5 of a buttock recurrence of HSV-2, patient 1; fusion proteins at 10 μg/ml
Description: as §1

TCC SB.17 = assay: T-cell proliferation, TCC SB.17; conditions: VP16 1-492 at 1 μg/ml, β-gal-VP16 180-492 at 1:1,000, peptides at 1 μM
Description: as §1, with “preparations.” for “preparations. To determine the reactivity of bulk-cultured lesion-derived T-cells, fusion proteins or control β-galactosidase were used at 10 μg/ml.”
as §4

TCC BM.17 = assay: T-cell proliferation, TCC BM.17; conditions: VP16 1-492 at 1 μg/ml, β-gal-VP16 180-492 at 1:1,000, peptides at 1 μM
Description: as §1, with “preparations.” for “preparations. To determine the reactivity of bulk-cultured lesion-derived T-cells, fusion proteins or control β-galactosidase were used at 10 μg/ml.”
as §4

[14] = allogeneic mismatched EBV-LCL targets

Molecule: GGPVGAGGRSHAPPARTPKMTR (GGPVGAGGRSHAPARTPKMTR) [VP22 105-126]
- stimulation of TCC 4.2E1 by overlapping peptides (TCC 4.2E1 [1]): stimulatory
- percent specific release (TCC 4.2E1 [2]; allogeneic mismatched EBV-LCL targets, HSV-2 infected or 1 μM peptide): −1.7%
- percent specific release (TCC 4.2E1 [2]; autologous EBV-LCL targets, HSV-2 infected or loaded with 1 μM peptide): 44.2%

Molecule: ICP0 743-751: amino acids 743-751 of ICP0 (QGTLVGALD; UniProt P08393 743-751, looked up, fragment)
- recognition by lesion-derived T cells (lesion-derived T cells): specific recognition

Molecule: VP16 185-197: HSV-2 VP16 (UL48) peptide, amino acids 185-197
- delta cpm [3H] thymidine incorporation compared to media (TCC RH.13 [3]; TCC RH.13, VP16 1-492 at 1 μg/ml, β-gal-VP16 180-492 at 1:1,000, peptides at 1 μM): 55,614 cpm
- stimulation of TCC RH.13 by VP16 peptides (TCC RH.13 [3]; epitope mapping with peptides): stimulatory
- percent specific release (TCC RH.13 [4]; [14]): 0.3%
- percent specific release (TCC RH.13 [4]; autologous EBV-LCL targets): 55.2%

Molecule: VP16 209-221: HSV-2 VP16 (UL48) peptide, amino acids 209-221
- percent specific release (TCC KM.7 [5]; [14]): 4.3%
- percent specific release (TCC KM.7 [5]; autologous EBV-LCL targets): 43.6%
- delta cpm [3H] thymidine incorporation compared to media (TCC KM.7 [6]): 10,075 cpm

Molecule: VP16 393-405: previously reported HSV-2 VP16 peptide epitope, amino acids 393-405 (LVAPRMSFLSAGQ; UniProt P68336 393-405, looked up, fragment)
- delta cpm [3H] thymidine incorporation compared to media (TCC ESL4.34 [7]): 95,942 cpm
- percent specific release (TCC ESL4.34 [8]; [14]): 0.6%
- percent specific release (TCC ESL4.34 [8]; autologous EBV-LCL targets): 10.4%

Molecule: VP16 430-444: previously reported HSV-2 VP16 peptide epitope, amino acids 430-444 (EEVDMTPADALDDFD; UniProt P68336 430-444, looked up, fragment)
- delta cpm [3H] thymidine incorporation compared to media (TCC ESL3.334 [9]): 27,283 cpm
- percent specific release (TCC ESL3.334 [10]; [14]): 0.3%
- percent specific release (TCC ESL3.334 [10]; autologous EBV-LCL targets): 33.6%

Molecule: VP16 431-440: previously reported HSV-2 VP16 peptide epitope, amino acids 431-440 (EVDMTPADAL; UniProt P68336 431-440, looked up, fragment)
- delta cpm [3H] thymidine incorporation compared to media (TCC 1A.B.25 [11]): 38,664 cpm
- percent specific release (TCC 1A.B.25 [12]; [14]): 2.1%
- percent specific release (TCC 1A.B.25 [12]; autologous EBV-LCL targets): 42.2%

B1: VP22 105-190: fusion protein containing VP22 amino acids 105-190 (protein)
chain: GGPVGAGGRSHAPPARTPKMTRGAPKASATPATDPARGRRPAQADSAVLLDAPAPTASGRTKTPAQGLAKKLHFSTAPPSPTAPWT
modifications: left off: large carriers
- reactivity of bulk lesion-infiltrating T-cell cultures [13]: showed reactivity

B2: β-gal-VP16 180-492: β-galactosidase fusion protein with HSV-2 VP16 180-492 (protein)
chain: YLRASVRQLHRQAHMRGRNRDLREMLRTTIADRYYRETARLARVLFLHLYLFLSREILWAAYAEQMMRPDLFDGLCCDLESWRQLACLFQPLMFINGSLTVRGVPVEARRLRELNHIREHLNLPLVRSAAAEEPGAPLTTPPVLQGNQARSSGYFMLLIRAKLDSYSSVATSEGESVMREHAYSRGRTRNNYGSTIEGLLDLPDDDDAPAEAGLVAPRMSFLSAGQRPRRLSTTAPITDVSLGDELRLDGEEVDMTPADALDDFDLEMLGDVESPSPGMTHDPVSYGALDVDDFEFEQMFTDAMGIDDFGG
modifications: left off: large carriers
- delta cpm [3H] thymidine incorporation compared to media (TCC SB.17): 12,178 cpm
- delta cpm [3H] thymidine incorporation compared to media (TCC 1A.B.25 [11]): 41,123 cpm
- delta cpm [3H] thymidine incorporation compared to media (TCC ESL3.334 [9]): 16,434 cpm
- delta cpm [3H] thymidine incorporation compared to media (TCC BM.17): 45,958 cpm
